From US5840698A, “Inhibitors of collagenase-1 and stormelysin-I metalloproteases, pharmaceutical compositions comprising same and methods of their use” (Affymax Technologies N.V., priority 1995, dated 1998)

Molecular target: T1, carboxyl terminal truncated form of human stromelysin-I (Homo sapiens, UniProt P08254)
T1 construct: a carboxyl terminal truncated form of human stromelysin-I
Assay: in vitro inhibition of truncated human stromelysin-I, fluorogenic Mca-peptide assay
Type: biochemical
Conditions: mercaptoalcohol compared with corresponding mercaptoketone
Experimental: For example, assays of in vitro inhibition activity against a carboxyl terminal truncated form of human stromelysin-I were conducted as follows. The buffer was prepared from 50 mM of N-[2-hydroxyethyl]piperazine-N'-[2-ethanesulfonic acid] (HEPES) (pH 7.0) containing 5 mM calcium, 0.02% of 23 lauryl ether (Brij) and 0.5 mM cysteine and was degassed by vacuum for more than 30 minutes. The methanol (MeOH), which is used for dilution of the inhibitor to the desired concentration, was degassed by bubbling argon for more than 30 minutes. For dilution, a sufficient amount of MeOH was then added to the compounds of the present invention to obtain a 10 mmol solution. For the assay, 20 μL of the MeOH/inhibitor solution was added to 460 μL of buffer, to which 20 μL of 100 nM of stromelysin was then added. The resulting solution was left for three minutes, after which time 5 μL of 100 μM of (7-methoxycoumarin-4-yl)acetyl-Pro-Leu-Gly-Leu-[3-(2',4'-dinitrophenyl)-L- 2,3-diaminopropionyl]-Ala-Arg-NH2 (Mca-peptide)(in dimethyl sulfoxide (DMSO)) was added. The fluorescence intensity increase was measured using a fluoremeter, with excitation wavelength centered around 328 nm (slit of 5 nm) and emission wavelength centered around 393 nm (slit of […]). The slope at each inhibitor concentration was then measured. The slope versus inhibition concentration was next fit into the IC50 equation of […]

T1 sequence (P08254 100-272 limits assumed): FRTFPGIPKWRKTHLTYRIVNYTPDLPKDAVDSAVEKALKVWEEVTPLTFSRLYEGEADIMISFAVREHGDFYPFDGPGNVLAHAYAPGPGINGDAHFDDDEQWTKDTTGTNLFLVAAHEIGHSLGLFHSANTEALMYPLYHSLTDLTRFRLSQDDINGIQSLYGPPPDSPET

CC(C)C[C@H](CC1CSC(c2ccccc2)(c2ccccc2)O1)C(=O)N1C(=O)OC[C@@H]1Cc1ccccc1 (stereo partly shown) [FIG. 11 (3)]
potency against stromelysin relative to the corresponding compound (FIG. 11): more than twice as potent
